Laboratory results: ChEMBL document CHEMBL4818998, “Melatonin derivatives combat with inflammation-related cancer by targeting the Main Culprit STAT3” (Eur J Med Chem, 2021)
Activity calls are given as the source filed them. The rule behind the calls is not given here.

Columns and labels:
[1] = AUC (0 to t) in Sprague-Dawley rat at 100 mg/kg, ig measured for 24 hrs by LC-MS analysis; assay type: ADME, organism-based; design: time 24 hrs, dose 100 mg/kg; settings: in vivo, po
HCT-116 [2] = test: Induction of apoptosis in human HCT-116 cells assessed as necrotic cells at 10 uM measured after 48 hrs by Annexin V-FITC/PI staining based flow cytometry (reference value: 1.5%); assay type: functional
[3] = Cytotoxicity against human HCT-116 cells assessed as cell viability at <36 uM measured after 24 hrs by CCK8 assay; assay type: cell-based; settings: read-out: Activity
HCT-116 [4] = test: Induction of apoptosis in human HCT-116 cells assessed as viable cells at 10 uM measured after 48 hrs by Annexin V-FITC/PI staining based flow cytometry (reference value: 94.9%); assay type: functional; settings: read-out: Activity
[5] = Toxicity in po dosed Kunming mouse; assay type: organism-based; settings: in vivo
[6] = Observed apparent oral clearance in Sprague-Dawley rat at 100 mg/kg measured for 24 hrs by LC-MS analysis; assay type: ADME, organism-based; settings: in vivo
[7] = Toxicity in Kunming mouse assessed as animal activity at 1000 mg/kg, ig measured for 14 days; assay type: organism-based; settings: in vivo, po, 336 h, time 14 day
[8] = Toxicity in Kunming mouse assessed as animal survival at 1000 mg/kg, ig measured for 14 days; assay type: organism-based; settings: in vivo, po, 336 h, time 14 day
HCT-116 [9] = test: Induction of apoptosis in human HCT-116 cells assessed as viable cells at 5 uM measured after 48 hrs by Annexin V-FITC/PI staining based flow cytometry (reference value: 94.9%); assay type: functional; settings: read-out: Activity
[10] = molecular target: Signal transducer and activator of transcription 3 (Homo sapiens) (UniProt P40763); test: Inhibition of STAT3 in human HCT-116 cells assessed as decrease in Bcl-2 expression at 2.5 to 10 uM measured after 48 hrs by western blot assay; assay type: cell-based; settings: dose 2.5-10 µM
[11] = Observed AUC (0 to infinity) in Sprague-Dawley rat at 100 mg/kg, ig measured for 24 hrs by LC-MS analysis; assay type: ADME, organism-based; design: route intragastric, time 24 hrs, dose 100 mg/kg; settings: in vivo, po
HCT-116 [12] = test: Antiproliferative activity against human HCT-116 cells assessed as inhibition of cell proliferation measured after 72 hrs by MTT assay; assay type: functional, cell-based; settings: HCT-116, 72 h
HGC-27 = test: Antiproliferative activity against human HGC-27 cells assessed as inhibition of cell proliferation measured after 72 hrs by MTT assay; assay type: functional, cell-based; settings: HGC-27, 72 h
HCT-116 [13] = test: Antimetastatic activity against human HCT-116 cells assessed as inhibition of cell invasion measured after 36 hrs by transwell assay; assay type: functional, cell-based; settings: dose 2.5-15 µM
HCT-116 [14] = test: Antiproliferative activity against human HCT-116 cells assessed as decrease in cell population at S-phase at 1.25 to 10 uM measured after 24 hrs by EdU incorporation based fluorescence microscopic analysis; assay type: functional; settings: dose 1.25-10 µM
[15] = Half life in Sprague-Dawley rat at 100 mg/kg, ig measured for 24 hrs by LC-MS analysis; assay type: ADME, organism-based; settings: in vivo, po
[16] = molecular target: Signal transducer and activator of transcription 3 (Homo sapiens) (UniProt P40763); test: Inhibition of STAT3 in human MGC-803 cells assessed as decrease in STAT3 phosphorylation at 4 to 16 uM measured after 48 hrs by western blot assay; assay type: cell-based; settings: dose 4-16 µM
MGC-803 [17] = test: Induction of apoptosis in human MGC-803 cells at 2.5 to 20 uM measured after 48 hrs by Annexin V-FITC/PI staining based flow cytometry; assay type: functional, cell-based; settings: dose 2.5-20 µM
[18] = molecular target: Signal transducer and activator of transcription 3 (Homo sapiens) (UniProt P40763); test: Inhibition of STAT3 in human MGC-803 cells assessed as decrease in Bcl-2 expression at 4 to 16 uM measured after 48 hrs by western blot assay; assay type: cell-based; settings: dose 4-16 µM
HCT-116 [19] = test: Downregulation of STAT3 expression in human HCT-116 cells at 10 uM measured after 3 hrs by Hoechst/fluorochrome-conjugated antibody staining based confocal laser microscopy; assay type: functional, cell-based
MGC-803 [20] = test: Antimetastatic activity against human MGC-803 cells assessed as inhibition of cell migration measured after 24 hrs by transwell assay; assay type: functional, cell-based; settings: dose 2.5-15 µM
AGS = test: Antiproliferative activity against human AGS cells assessed as inhibition of cell proliferation measured after 72 hrs by MTT assay; assay type: functional, cell-based
MGC-803 [21] = test: Antimetastatic activity against human MGC-803 cells assessed as inhibition of cell invasion measured after 24 hrs by transwell assay; assay type: functional, cell-based; settings: dose 2.5-15 µM
HCT-116 [22] = test: Induction of apoptosis in human HCT-116 cells assessed as […] of cleaved caspase-3 expression at 2.5 to 10 uM measured after 48 hrs by western blot assay; assay type: functional, cell-based; settings: dose 2.5-10 µM
HCT-116 [23] = test: Cytotoxicity against human HCT-116 cells assessed as reduction in cell viability at <=20 uM measured after 48 hrs by CCK8 assay; assay type: cell-based; settings: hct-116, 48 h
HCT-116 [24] = test: Induction of apoptosis in human HCT-116 cells assessed as early apoptotic cells at 10 uM measured after 48 hrs by Annexin V-FITC/PI staining based flow cytometry (reference value: 2.14%); assay type: functional
RAW264.7 = test: Anti-inflammatory activity against mouse RAW264.7 cells assessed as decrease in LPS-induced IL-6 secretion measured after 24 hrs by ELISA; assay type: functional, cell-based; settings: dose 5-20 µM
HCT-116 [25] = test: Induction of apoptosis in human HCT-116 cells assessed as necrotic cells at 2.5 uM measured after 48 hrs by Annexin V-FITC/PI staining based Flowcytometry assay (reference value: 1.5%); assay type: functional
MGC-803 [26] = test: Downregulation of STAT3 expression in human MGC-803 cells at 10 uM measured after 3 hrs by Hoechst/fluorochrome-conjugated antibody staining based confocal laser microscopy; assay type: functional, cell-based
HCT-116 [27] = test: Inhibition of clonogenicity in human HCT-116 cells assessed as reduction in colony formation measured after 9 days by crystal violet staining based analysis; assay type: functional, cell-based; settings: dose 1.25-10 µM, time 9.0 day
[28] = molecular target: Signal transducer and activator of transcription 3 (Homo sapiens) (UniProt P40763); test: Inhibition of STAT3 in human HCT-116 cells assessed as inhibition of nuclear translocation of STAT3 at 10 uM measured after 3 hrs by Hoechst/fluorochrome-conjugated antibody staining based confocal laser microscopy; assay type: cell-based
HCT-116 [29] = test: Induction of apoptosis in human HCT-116 cells assessed as early apoptotic cells at 5 uM measured after 48 hrs by Annexin V-FITC/PI staining based flow cytometry (reference value: 2.14%); assay type: functional
[30] = Cytotoxicity against LPS-stimulated mouse RAW264.7 cells assessed as cell viability at 5 to 20 microM measured after 24 hrs; assay type: cell-based; settings: LPS-stimulated RAW264.7 cells, dose 5-20 µM, read-out: Activity
HCT-116 [31] = test: Induction of apoptosis in human HCT-116 cells assessed as increase in apoptotic cells with twinkling cell nuclei at 1.25 to 10 uM measured after 48 hrs by Hoechst 33342 staining based light blue fluorescence analysis; assay type: functional; settings: dose 1.25-10 µM
[32] = Tmax in Sprague-Dawley rat at 100 mg/kg, ig measured for 24 hrs by LC-MS analysis; assay type: ADME, organism-based; settings: in vivo, po
MGC-803 [33] = test: Downregulation of STAT3 expression in human MGC-803 cells at 4 to 16 uM measured after 48 hrs by western blot assay; assay type: functional, cell-based; settings: dose 4-16 µM

Chain of Signal transducer and activator of transcription 3 (Homo sapiens) (P40763 whole entry): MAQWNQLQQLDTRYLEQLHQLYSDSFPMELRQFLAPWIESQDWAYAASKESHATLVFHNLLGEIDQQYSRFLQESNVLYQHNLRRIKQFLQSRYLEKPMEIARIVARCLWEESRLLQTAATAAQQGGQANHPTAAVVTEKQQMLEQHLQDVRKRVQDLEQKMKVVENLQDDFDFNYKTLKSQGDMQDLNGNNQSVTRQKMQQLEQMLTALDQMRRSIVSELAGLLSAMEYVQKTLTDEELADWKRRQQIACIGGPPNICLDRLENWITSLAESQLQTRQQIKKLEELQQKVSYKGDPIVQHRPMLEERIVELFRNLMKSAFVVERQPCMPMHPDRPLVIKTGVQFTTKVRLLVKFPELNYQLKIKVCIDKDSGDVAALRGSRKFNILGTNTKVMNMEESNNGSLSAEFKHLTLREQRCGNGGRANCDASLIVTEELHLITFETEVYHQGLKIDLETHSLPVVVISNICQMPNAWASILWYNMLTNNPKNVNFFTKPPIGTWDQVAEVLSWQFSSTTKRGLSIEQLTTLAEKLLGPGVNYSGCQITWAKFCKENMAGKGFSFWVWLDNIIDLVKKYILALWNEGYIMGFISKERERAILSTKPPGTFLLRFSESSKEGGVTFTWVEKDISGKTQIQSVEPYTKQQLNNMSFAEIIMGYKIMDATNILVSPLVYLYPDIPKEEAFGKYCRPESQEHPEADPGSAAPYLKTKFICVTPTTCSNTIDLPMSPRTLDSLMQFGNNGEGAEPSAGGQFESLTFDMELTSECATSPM

Structure (SMILES): Cc1c(Cl)cccc1Nc1ccccc1C(=O)NCCc1c[nH]c2ccccc12
- AUC(0-t) at 24 h [1]: 1670 ng·h/mL
- Activity (HCT-116 [2]): 2.42%
- viability at 24 h [3]: ≥ 80%
- viability at 10 µM (HCT-116 [4]): 58.5%
- LD50 [5]: > 1000 mg/kg
- CL/F [6]: 51.75 (mg/kg)/(microg/ml)/hr
- Activity [7]: Non-Toxic
- Activity [8]: Non-Toxic
- viability at 5 µM (HCT-116 [9]): 87.8%
- inhibition [10]: Active
- AUC(0-inf) [11]: 1930 ng·h/mL
- IC50 (HCT-116 [12]): 8.42 µM
- IC50 (HGC-27): 15.5 µM
- Activity (HCT-116 [13]): Dose-Dependent Effect
- Activity (HCT-116 [14]): Active
- half-life [15]: 7.58 h
- inhibition [16]: Active
- Activity (MGC-803 [17]): inactive
- inhibition [18]: Active
- inhibition (HCT-116 [19]): Active
- Activity (MGC-803 [20]): Dose-Dependent Effect
- IC50 (AGS): 9.12 µM
- Activity (MGC-803 [21]): Dose-Dependent Effect
- Activity (HCT-116 [22]): Active
- Activity (HCT-116 [23]): Non-Toxic
- Activity (HCT-116 [24]): 33%
- Activity (RAW264.7): Dose-Dependent Effect
- Activity (HCT-116 [25]): 2.07%
- inhibition (MGC-803 [26]): Active
- inhibition (HCT-116 [27]): Dose-Dependent Effect
- inhibition [28]: Active
- Activity (HCT-116 [29]): 5.44%
- viability at 24 h [30]: > 80%
- Activity (HCT-116 [31]): Active
- Tmax [32]: 1 h
- inhibition (MGC-803 [33]): Active
